Results from patent US9296687B2, “Modulators of HSP70/DnaK function and methods of use thereof” (The Trustees of the University of Pennsylvania, priority 2008, dated 2016).

What was measured:
p62/SQSTM1, LC3 = assay: Autophagy markers in cultured cells (vacuoles, LC3-II, p62/SQSTM1, electron microscopy); format: cell-based, human
Scc61 cells = assay: Colony formation assay with gamma radiation; format: cell-based, human; conditions: PES + 2 Gy
Protocol: (§1) Fadu or Scc 61 (squamous cell carcinoma of the head and neck) cell lines were grown in DMEM supplemented with 10% fetal bovine serum and antibiotics. Cells were pre-treated with PES (10 μM) for 24 hr after which they were subject to gamma radiation (either 2 or 10 Gy) and plated at different densities in 6 well plates; the wells depicted were plated at 2000 cells/well. After 10 days, colonies were stained with crystal violet.

FADU cells = assay: Colony formation assay with gamma radiation; format: cell-based, human; conditions: PES 10 μM + 10 Gy
Protocol: as §1

MiaPaCa2 cells = assay: Pulse-chase of newly synthesized proteins; format: cell-based, human; conditions: 20 μM, 3 h chase
Protocol: FIG. 13. Cycloheximide Reduces PES-Induced Cytoplasmic Vacuolization. (A) Representative phase-contrast images of indicated tumor cell lines pretreated with DMSO or 1 μg/ml of cycloheximide (CHX) for 1 h, followed by the addition of 20 μM PES for 23 h. (B) The molecular chaperone HSP70 has been implicated in promoting proper folding of nascent polypeptides. […] Briefly, MiaPaCa2 cells were incubated in methionine/cysteine starvation medium for 30 min before adding [^35S]methionine/cysteine and DMSO or [^35S]methionine/cysteine and 20 μM PES, as indicated, to pulse for 1 h. Following the pulse, cells were immediately chased by complete medium for 0, 0.5, or 3 h, either in the presence of DMSO or 20 μM PES, as indicated. Cells were harvested at indicated time points, lysed in 1% NP40-containing buffer, and fractionated into detergent-soluble and detergent-insoluble preparations.
The cells were seeded at ˜50% confluency in 10 ml of DMEM/10% FBS/1× Pen-Strep using 100 mm dish. Next day, the cells were washed extensively in PBS and starved in “methionine/cysteine-free DMEM” (Invitrogen SKU#21013-024) with 5% dialyzed FBS and 1× Pen/Strep for 30 min. Either [^35S] Methionine/Cysteine (500 μCi) and DMSO or [^35S] Methionine/Cysteine (500 μCi) and 20 μM PES were added to the cells for 1 h. The cells were washed extensively to remove [^35S] […]

HSP70 = HSP70 (Homo sapiens, UniProt P0DMV8); assay: Competition of untagged PES with B-PES for HSP70; format: binding; design: endogenous in cells; host or cells: human tumor cell lines (A875, BX-U2OS, U2OS, H1299, MiaPaCa2, HepG2, SKBR3, 293T)
HSP70, sequence (P0DMV8 whole entry): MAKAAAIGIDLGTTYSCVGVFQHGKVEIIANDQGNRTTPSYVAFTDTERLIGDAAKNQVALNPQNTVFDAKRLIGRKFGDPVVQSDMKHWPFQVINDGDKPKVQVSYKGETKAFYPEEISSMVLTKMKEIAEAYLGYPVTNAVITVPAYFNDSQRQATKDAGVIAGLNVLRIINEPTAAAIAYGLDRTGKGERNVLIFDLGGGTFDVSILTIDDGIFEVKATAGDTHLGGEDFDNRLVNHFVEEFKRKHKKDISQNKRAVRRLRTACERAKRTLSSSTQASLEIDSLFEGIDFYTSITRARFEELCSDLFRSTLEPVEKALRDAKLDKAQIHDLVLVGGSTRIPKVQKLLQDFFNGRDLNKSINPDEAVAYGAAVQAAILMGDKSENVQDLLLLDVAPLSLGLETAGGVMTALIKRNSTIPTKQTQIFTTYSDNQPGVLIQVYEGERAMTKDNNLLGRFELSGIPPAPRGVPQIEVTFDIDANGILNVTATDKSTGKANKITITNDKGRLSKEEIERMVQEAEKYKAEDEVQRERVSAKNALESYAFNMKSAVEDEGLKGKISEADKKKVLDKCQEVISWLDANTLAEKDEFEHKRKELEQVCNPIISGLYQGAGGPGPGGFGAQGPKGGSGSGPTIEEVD
Protocol: FIG. 15. Evidence supporting HSP70 as the cellular target of PES. (A) Competition studies in vivo support HSP70 as a PES target. H1299 cells were either pre-treated with DMSO or excess (25×) untagged PES for 1 h prior to the addition of 20 μM Biotin-PES (B-PES) for 5 h, and examined for the expression of proteins indicated (left). B-PES-containing complexes were captured by NeutrAvidin Resins, and immunoblotted using the indicated antibodies. […] (B) Competition studies in vitro support HSP70 as a PES target. Purified HSP70 protein was incubated with 0.25 mM B-PES in the absence and in the presence of 0.125 mM untagged PES.

## NS(=O)(=O)C#Cc1ccccc1 [PES, 2-Phenylethynesulfonamide]
p62/SQSTM1, LC3; 20 μM
  LC3-II level: higher levels of LC3-II
p62/SQSTM1, LC3; 20 μM, 7 or 24 h
  autophagosomes and autophagolysosomes by electron microscopy: rapid and substantial increase in multiple double-membrane autophagosomes and single-membrane autophagolysosomes
p62/SQSTM1, LC3; 24 h
  intracytoplasmic vacuoles: progressive accumulation of intracytoplasmic vacuoles
p62/SQSTM1, LC3; 24 h, PES 20 μM, Velcade 100 nM, CQ 50 μM, 17-AAG 15 nM
  p62/SQSTM1 oligomers in soluble and detergent-insoluble fractions: higher molecular weight forms of p62/SQSTM1 in both the soluble and detergent-insoluble fractions
p62/SQSTM1, LC3; H1299 cells, increasing concentrations, 24 h
  p62/SQSTM1 accumulation and oligomerization: notable increase in p62/SQSTM1 accumulation and oligomerization
p62/SQSTM1, LC3; IMR90 cells, 24 h
  p62 oligomerization and LC3-II accumulation: only a modest degree of p62 oligomerization and LC3-II accumulation
p62/SQSTM1, LC3; IP-WB, MiaPaCa2, A875
  interaction between LC3 and p62/SQSTM1: enhanced the interaction
p62/SQSTM1, LC3; western blot
  accumulation and oligomerization of p62/SQSTM1: promotes an accumulation and oligomerization of p62/SQSTM1 in a time- and dose-dependent manner
Scc61 cells
  colony formation with radiation: effectively diminished the capacity of these cells to form colonies
FADU cells
  colony formation with radiation: combine effectively to reduce the capacity to form colonies
MiaPaCa2 cells
  newly-synthesized proteins in the detergent-insoluble fraction: increase in the newly-synthesized proteins in the detergent-insoluble fraction
HSP70; H1299 cells, excess (25×) untagged PES 1 h, then 20 μM B-PES 5 h
  binding of HSP70 to B-PES matrix with competitor: Binding of HSP70 to the matrix is reduced
HSP70; purified HSP70, 0.25 mM B-PES, 0.125 mM untagged PES
  B-PES/HSP70 complex formation: reduces B-PES/HSP70 complex formation
